Data published in patent US11186602B2, “Glucopyranosyl derivative and use thereof” (SUNSHINE LAKE PHARMA CO., LTD., priority 2018, dated 2021).
pIC50: −log10 of the molar value.

molecular target: T1, human SGLT1 (Homo sapiens, UniProt P13866); assay: Determination of SGLT1 inhibitory activity ([14C]-AMG uptake in CHO cells expressing human SGLT1); format: cell-based; conditions: CHO cells expressing human SGLT1, [14C]-AMG uptake, 37° C. for 1 hour
T1 construct: expressed in transfected cells; host or cells: CHO cells (Flp-in CHO)
T1 sequence (P13866 1-664): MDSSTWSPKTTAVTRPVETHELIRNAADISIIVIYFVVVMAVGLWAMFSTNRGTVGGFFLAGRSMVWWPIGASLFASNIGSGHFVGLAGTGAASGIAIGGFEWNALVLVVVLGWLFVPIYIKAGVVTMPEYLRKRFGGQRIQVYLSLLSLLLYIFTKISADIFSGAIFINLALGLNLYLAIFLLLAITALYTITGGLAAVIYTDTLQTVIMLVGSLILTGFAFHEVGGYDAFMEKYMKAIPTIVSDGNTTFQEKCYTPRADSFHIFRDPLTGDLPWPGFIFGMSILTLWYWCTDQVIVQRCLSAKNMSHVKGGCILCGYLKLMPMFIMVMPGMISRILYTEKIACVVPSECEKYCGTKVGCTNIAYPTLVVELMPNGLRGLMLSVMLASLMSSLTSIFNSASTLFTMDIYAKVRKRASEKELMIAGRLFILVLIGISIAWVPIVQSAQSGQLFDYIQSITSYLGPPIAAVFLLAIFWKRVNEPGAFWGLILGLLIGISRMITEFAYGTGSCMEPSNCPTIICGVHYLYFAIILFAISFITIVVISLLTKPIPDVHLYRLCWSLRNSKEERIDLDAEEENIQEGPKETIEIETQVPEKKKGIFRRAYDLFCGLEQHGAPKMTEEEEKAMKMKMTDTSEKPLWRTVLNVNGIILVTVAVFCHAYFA
Procedure: Mock-transfected FIP-in CHO cells (3×10^4 cells) and CHO cells expressing human SGLT1 gene were seeded into 96-well plates respectively. The cells were incubated for 12 hours. Each well of the 96-well plates was washed with 150 μL of sodium-free buffer once. To each well was added 50 μL of sodium-containing buffer containing test compounds having different concentrations and 0.5 μm [^14C]-AMG And the mixture in the well was incubated at 37° C. for 1 hour. To each well was added 150 μL of precooled sodium-free buffer to terminate the reaction. The cell pellet was washed with sodium free buffer three times and the residual liquid in well was removed. To each well was added 20 μL of precooled 100 mM NaOH, and the 96-well plates were vibrated at 900 rpm for 5 minutes. Scintillation fluid (80 μL) was added to each well which was then vibrated at 600 rpm for 5 minutes. The amount of 14C-AMG was quantitatively detected using liquid scintillation.

Going from `Cc1ccc([C@]23OC[C@](C(C)(C)O)(O2)[C@@H](O)[C@H](O)[C@H]3O)cc1Cc1ccc(CCCC(=O)NC(C)(C)C(=O)NCCN2CCCC2)cc1` [Example 1, 2-Methyl-2-[4-[4-[[2-methyl-5-[(1S,2S,3S,4R,5S)-2,3,4-trihydroxy-1-(1-hydroxy-1-methyl-ethyl)-6,8-dioxabicyclo[3.2.1]octan-5-yl]phenyl]methyl]phenyl]butyrylamino]-N-(2-pyrrolidin-1-ylethyl)propionamide] to `Cc1ccc([C@]23OC[C@](C(C)(C)O)(O2)[C@@H](O)[C@H](O)[C@H]3O)cc1Cc1ccc(CCCC(=O)N2CCC[C@H]2C(=O)NCCN(C)C)cc1` [Example 11, (2S)—N-(2-Dimethylaminoethyl)-1-[4-[4-[[2-methyl-5-[(1S,2S,3S,4R,5S)-2,3,4-trihydroxy-1-(1-hydroxy-1-methyl-ethyl)-6,8-dioxabicyclo[3.2.1]octan-5-yl]phenyl]methyl]phenyl]butyryl]pyrrolidine-2-carboxamide], the pIC50 falls from 8.76 to 8.24 (0.52 log units). The first is the more potent here.

With `Cc1ccc([C@]23OC[C@](C(C)(C)O)(O2)[C@@H](O)[C@H](O)[C@H]3O)cc1Cc1ccc(CCCC(=O)NC2(C(=O)NCCN3CC[C@@H](F)C3)CCCCC2)cc1` [Example 7, N-[2-[(3R)-3-fluoropyrrolidin-1-yl]ethyl]-1-[4-[4-[[2-methyl-5-[(1S,2S,3S,4R,5S)-2,3,4-trihydroxy-1-(1-hydroxy-1-methyl-ethyl)-6,8-dioxabicyclo[3.2.1]octane-5-yl]phenyl]methyl]phenyl]butyrylamino]cyclohexyl formamide] the pIC50 was 8.94.
